Test results published in US9550744B2, “Vitamin C prodrugs and uses thereof” (priority 2013, dated 2017).

Assays:
[1] = solubility in octanol, room temperature
Description: Lipid solubility (SLIPID): Each compound (50-100 mg) was stirred at rt in four test tubes containing 2 or 3 mL of isopropyl myristate (IPM) or octanol (OCT) overnight. The saturated suspensions were filtered and about 0.020 mL of each filtrate was diluted with 5 or 10 mL of acetonitrile (ACN). The UV absorbances of the diluted filtrates were measured and the concentrations of each compound in either IPM (SIPM) or OCT (SOCT) were determined using Beer's Law as above but using previously measured ε of each compound in ACN.
The solubilities in the lipid, SOCT or SIPM, could also then be calculated from KLIPID:AQ=SLIPID/SAQ.

[2] = solubility in water, room temperature (23±0.5° C.)
Description: After the suspensions were allowed to settle, about 0.020 mL of each supernatant was added to a UV cuvette containing about 2.98 mL of Millipore H2O, and the UV absorption of each solution was measured. The concentration, SAQ, of each compound was determined using Beer's Law and the previously measured molar absorptivities (ε, L mol^−1cm^−1) of each compound in water where A is the absorbance (no units), b is the path length of the cuvette (cm) and c is the concentration (mol L^−1) of each compound in the supernatant. Beer's Law: A=εbc c=A/εb

[3] = Hydrolysis at pH 10.0 followed by iodine titration; type: physicochemical; details: pH 10.0, iodine titration with starch indicator
Description: If no free enediol is present, the excess iodine reacts with a starch indicator to give a blue color. During the titration, as iodine solution was added to the prodrug solution, a blue color formed initially but faded as the free enediol was released by hydrolysis of the prodrug and the iodine was reduced to iodide.

| SMILES | log SOCT [1] | log SAQ [2] | theoretical amount of ascorbic acid acetonide formed from hydrolysis of the prodrug [3] |
| --- | --- | --- | --- |
| CC(=O)OCOC1=C(OC(C)=O)C(=O)OC1C1COC(C)(C)O1 [2-AcC1-3-SMC1 ascorbic acid acetonide, 5,6-Isopropylidene-3-O-(acetyloxymethyl)-2-O-acetyl-L-ascorbic acid] | 1.55 | 1.56 | – |
| CC(=O)OCOC1=C(OC(C)=O)C(=O)OC1C(O)CO (centres unmarked) [2-AcC1-3-SMC1 ascorbic acid] | 1.66 | 2.05 | – |
| CCC(=O)OCOC1=C(OC(=O)CC)C(=O)OC1C1COC(C)(C)O1 (centres unmarked) [2-ethylcarbonyl-3-ethylcarbonyloxymethyl-5,6-isopropylidene ascorbic acid] | – | – | 95.7% |
